The values that follow come from US9096625B2, “BCL-2/BCL-XL inhibitors and therapeutic methods using the same” (THE REGENTS OF THE UNIVERSITY OF MICHIGAN, priority 2013, dated 2015).

A word on the Kd: it is the equilibrium constant for the complex coming apart.

The target in one assay is T1, A1 (Homo sapiens, UniProt Q16548).
T1 sequence (Q16548 1-175): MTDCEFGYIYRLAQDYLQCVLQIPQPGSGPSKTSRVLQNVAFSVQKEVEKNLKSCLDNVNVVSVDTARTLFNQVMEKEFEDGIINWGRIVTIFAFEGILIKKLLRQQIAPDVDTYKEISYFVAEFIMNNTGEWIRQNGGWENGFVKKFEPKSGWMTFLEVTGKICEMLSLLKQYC
As to conditions: versus Bcl-2, Bcl-xL, Bcl-w; cited from earlier work.

Assay [1] has as its target T2, Mcl-1 (Homo sapiens, UniProt Q07820). The settings on record: versus Bcl-2, Bcl-xL, Bcl-w; cited from earlier work.
Target sequence in this assay (Q07820 whole entry, species assumed): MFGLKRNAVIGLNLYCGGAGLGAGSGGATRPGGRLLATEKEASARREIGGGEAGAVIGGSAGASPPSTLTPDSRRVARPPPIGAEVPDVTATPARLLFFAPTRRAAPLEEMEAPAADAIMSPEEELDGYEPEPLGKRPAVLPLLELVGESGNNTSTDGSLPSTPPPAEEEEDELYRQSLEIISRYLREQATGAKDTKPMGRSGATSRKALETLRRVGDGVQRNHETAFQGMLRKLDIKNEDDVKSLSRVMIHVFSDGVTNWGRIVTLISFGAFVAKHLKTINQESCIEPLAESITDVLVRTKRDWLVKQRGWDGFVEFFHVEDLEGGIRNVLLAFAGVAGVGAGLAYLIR
Assay [2] deals with T2, Mcl-1. Briefly: Fluorescence polarization (FP)-based binding assay, Mcl-1. The settings on record: FP saturation, 2 nM probe, increasing protein concentrations; read-out: Kd of fluorescent probe to Mcl-1. On the technique in general: In fluorescence polarisation assays a small probe gives low polarisation when free and higher when bound to something large.
Target sequence in this assay (Q07820 whole entry): as the sequence (Q07820 whole entry, species assumed) above

Take `CC1(C)CCC(c2ccc(Cl)cc2)=C(CN2CCN(c3ccc(C(=O)NS(=O)(=O)c4ccc(N[C@H](CCN5CCOCC5)CSc5ccccc5)c(S(=O)(=O)C(F)(F)F)c4)cc3)CC2)C1` [ABT-263]: the “specificity over A1” value at A1 is “high specificity”. Further, the “specificity over Mcl-1” value at Mcl-1 [1] is “high specificity”. `CN(C)CC[C@H](CSc1ccccc1)Nc1ccc(S(=O)(=O)NC(=O)c2ccc(N3CCN(Cc4ccccc4-c4ccc(Cl)cc4)CC3)cc2)cc1[N+](=O)[O-]` [ABT-737]: the “specificity over A1” value at A1 is given as “high specificity”. Moreover, on Mcl-1 [1], the “specificity over Mcl-1” value is given as “high specificity”. For the compound “Flu-BID: homemade fluorescein labeled BID (79-99) peptide, fluorescent probe for Mcl-1 FP assay”, the Kd with Mcl-1 [2] amounted to 6.8 ± 1.5 nM.
